# In patent publication US20090291938A1 (TAKEDA PHARMACEUTICAL COMPANY LIMITED, priority 2007, published 2009):
# Test system: HT29 human colorectal adenocarcinoma cell line
# Assay: cell proliferation assay (Cell Titer-Glo luminescent cell viability assay)
# Assay type: cell-based
# Details: HT-29, 72 h, read-out: pIC50 (converted)
# How it was run: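 Cells grown in DMEM with 10% FBS and exposed to compounds for 72 h. Viability read by CellTiter-Glo luminescence, expressed as percentage of DMSO-treated cells.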
row,SMILES,IC50 [nM]
1,"COc1cc(C(=O)NC2CCN(C)CC2)ccc1Nc1ncc2c(n1)N(C1CCCC1)CC1(CCC1)C(=O)N2C [Compound 179, 4-(9′-Cyclopentyl-5′-methyl-6′-oxo-5′,6′,8′,9′-tetrahydrospiro[cyclobutane-1,7′-pyrimido[4,5-b][1,4]diazepine]-2′-ylamino)-3-methoxy-N-(1-methylpiperidin-4-yl)benzamide]",< 1

# Same assay, conditions: HT-29, cell proliferative assay, HT29 cells, 72 hr treatment, values given as ranges, read-out: pIC50 (converted)
row,IC50 [nM],SMILES
1,1 to 2.51,"COc1cc(C(=O)NC2CN(C)C2)ccc1Nc1ncc2c(n1)N(C1CCCC1)CC1(CC1)C(=O)N2C [Compound 163, 4-(9′-cyclopentyl-5′-methyl-6′-oxo-5′,6′,8′,9′-tetrahydrospiro[cyclopropane-1,7′-pyrimido[4,5-b][1,4]diazepine]-2′-ylamino)-3-methoxy-N-(1-methylazetidin-3-yl)benzamide]"
2,1 to 2.51,"COc1cc(C(=O)N[C@H]2CCCN(C)C2)ccc1Nc1ncc2c(n1)N(C1CCCC1)CC1(CC1)C(=O)N2C [Compound 164, (S)-4-(9′-cyclopentyl-5′-methyl-6′-oxo-5′,6′,8′,9′-tetrahydrospiro-[cyclopropane-1,7′-pyrimido[4,5-b][1,4]diazepine]-2′-ylamino)-3-methoxy-N-(1-methylpiperidin-3-yl)benzamide]"
3,1 to 2.51,"COc1cc(C(=O)N[C@@H]2CCCN(C)C2)ccc1Nc1ncc2c(n1)N(C1CCCC1)CC1(CC1)C(=O)N2C [Compound 165, (R)-4-(9′-cyclopentyl-5′-methyl-6′-oxo-5′,6′,8′,9′-tetrahydrospiro[cyclopropane-1,7′-pyrimido[4,5-b][1,4]diazepine]-2′-ylamino)-3-methoxy-N-(1-methylpiperidin-3-yl)benzamide]"
4,3.16 to 10,"COc1cc(C(=O)N[C@H]2CCN(C)C2)ccc1Nc1ncc2c(n1)N(C1CCCC1)CC1(CC1)C(=O)N2C [Compound 167, (S)-4-(9′-cyclopentyl-5′-methyl-6′-oxo-5′,6′,8′,9′-tetrahydrospiro[cyclopropane-1,7′-pyrimido[4,5-b][1,4]diazepine]-2′-ylamino)-3-methoxy-N-(1-methylpyrrolidin-3-yl)benzamide]"
5,1 to 2.51,"COc1cc(C(=O)NC2CCN(C)CC2)ccc1Nc1ncc2c(n1)N(C1CCCCC1)CC1(CC1)C(=O)N2C [Compound 169, 4-(9′-cyclohexyl-5′-methyl-6′-oxo-5′,6′,8′,9′-tetrahydrospiro[cyclopropane-1,7′-pyrimido[4,5-b][1,4]diazepine]-2′-ylamino)-3-methoxy-N-(1-methylpiperidin-4-yl)benzamide]"
6,< 1,"COc1cc(C(=O)N[C@H]2CCCN(C)C2)ccc1Nc1ncc2c(n1)N(C1CCCCC1)CC1(CC1)C(=O)N2C [Compound 171, (S)-4-(9′-cyclohexyl-5′-methyl-6′-oxo-5′,6′,8′,9′-tetrahydrospiro[cyclopropane-1,7′-pyrimido[4,5-b][1,4]diazepine]-2′-ylamino)-3-methoxy-N-(1-methylpiperidin-3-yl)-benzamide]"
7,1 to 2.51,"COc1cc(C(=O)N[C@@H]2CCCN(C)C2)ccc1Nc1ncc2c(n1)N(C1CCCCC1)CC1(CC1)C(=O)N2C [Compound 172, (R)-4-(9′-cyclohexyl-5′-methyl-6′-oxo-5′,6′,8′,9′-tetrahydrospiro[cyclopropane-1,7′-pyrimido[4,5-b][1,4]diazepine]-2′-ylamino)-3-methoxy-N-(1-methylpiperidin-3-yl)benzamide]"
8,1 to 2.51,"COc1cc(C(=O)NC2CN(C)C2)ccc1Nc1ncc2c(n1)N(C1CCCCC1)CC1(CC1)C(=O)N2C [Compound 173, 4-(9′-cyclohexyl-5′-methyl-6′-oxo-5′,6′,8′,9′-tetrahydrospiro[cyclopropane-1,7′-pyrimido[4,5-b][1,4]diazepine]-2′-ylamino)-3-methoxy-N-(1-methylazetidin-3-yl)benzamide]"
9,< 1,"COc1cc(C(=O)N[C@@H]2CCCNC2)ccc1Nc1ncc2c(n1)N(C1CCCCC1)CC1(CC1)C(=O)N2C [Compound 175, (R)-4-(9′-cyclohexyl-5′-methyl-6′-oxo-5′,6′,8′,9′-tetrahydrospiro [cyclopropane-1,7′-pyrimido[4,5-b][1,4]diazepine]-2′-ylamino)-3-methoxy-N-(piperidin-3-yl)benzamide]"

# Continued, compound first:
row,SMILES,IC50 [nM]
1,"CC[C@]1(C)CN(C2CCCCC2)c2nc(Nc3ccc(C(=O)NC4CN(C)C4)cc3OC)ncc2N(C)C1=O [Compound 145, (R)-4-(9-cyclohexyl-7-ethyl-5,7-dimethyl-6-oxo-6,7,8,9-tetrahydro-5H-pyrimido[4,5-b][1,4]diazepin-2-ylamino)-3-methoxy-N-(1-methylazetidin-3-yl)benzamide]",3.16 to 10
2,"CC[C@@]1(C)CN(C2CCCCC2)c2nc(Nc3ccc(C(=O)N[C@@H]4CCCNC4)cc3OC)ncc2N(C)C1=O [Compound 148, 4-((S)-9-cyclohexyl-7-ethyl-5,7-dimethyl-6-oxo-6,7,8,9-tetrahydro-5H-pyrimido[4,5-b][1,4]diazepin-2-ylamino)-3-methoxy-N-((R)-piperidin-3-yl)benzamide]",3.16 to 10
3,"CC[C@@]1(C)CN(C2CCCCC2)c2nc(Nc3ccc(C(=O)N[C@H]4CCCNC4)cc3OC)ncc2N(C)C1=O [Compound 149, 4-((S)-9-cyclohexyl-7-ethyl-5,7-dimethyl-6-oxo-6,7,8,9-tetrahydro-5H-pyrimido[4,5-b][1,4]diazepin-2-ylamino)-3-methoxy-N-((S)-piperidin-3-yl)benzamide]",3.16 to 10
4,"CC[C@]1(C)CN(C2CCCCC2)c2nc(Nc3ccc(C(=O)N[C@H]4CCCNC4)cc3OC)ncc2N(C)C1=O [Compound 151, 4-((R)-9-cyclohexyl-7-ethyl-5,7-dimethyl-6-oxo-6,7,8,9-tetrahydro-5H-pyrimido[4,5-b][1,4]diazepin-2-ylamino)-3-methoxy-N-((S)-piperidin-3-yl)benzamide]",3.16 to 10
5,"COc1cc(C(=O)NC2CCN(C)CC2)ccc1Nc1ncc2c(n1)N(C1CCC1)CC(C)(C)C(=O)N2C [Compound 153, 4-(9-cyclobutyl-5,7,7-trimethyl-6-oxo-6,7,8,9-tetrahydro-5H-pyrimido[4,5-b][1,4]diazepin-2-ylamino)-3-methoxy-N-(1-methylpiperidin-4-yl)benzamide]",3.16 to 10
6,"COc1cc(C(=O)NC2CN(C)C2)ccc1Nc1ncc2c(n1)N(C1CCC1)CC(C)(C)C(=O)N2C [Compound 154, 4-(9-cyclobutyl-5,7,7-trimethyl-6-oxo-6,7,8,9-tetrahydro-5H-pyrimido[4,5-b][1,4]diazepin-2-ylamino)-3-methoxy-N-(1-methylazetidin-3-yl)benzamide]",3.16 to 10
7,"COc1cc(C(=O)NC2CCN(C)CC2)ccc1Nc1ncc2c(n1)N(C(C)C)CC(C)(C)C(=O)N2C [Compound 155, 4-(9-isopropyl-5,7,7-trimethyl-6-oxo-6,7,8,9-tetrahydro-5H-pyrimido[4,5-b][1,4]diazepin-2-ylamino)-3-methoxy-N-(1-methylpiperidin-4-yl)benzamide]",3.16 to 10
8,"COc1cc(C(=O)NC2CCN(C)CC2)ccc1Nc1ncc2c(n1)N(C1CCCCC1)CC(C1CC1)C(=O)N2C (stereo not shown) [Compound 156, 4-(9-cyclohexyl-7-cyclopropyl-5-methyl-6-oxo-6,7,8,9-tetrahydro-5H-pyrimido[4,5-b][1,4]diazepin-2-ylamino)-3-methoxy-N-(1-methylpiperidin-4-yl)benzamide]",> 10
9,"COc1cc(C(=O)NC2CN(C)C2)ccc1Nc1ncc2c(n1)N(C1CCCCC1)CC(C1CC1)C(=O)N2C (stereo not shown) [Compound 157, 4-(9-cyclohexyl-7-cyclopropyl-5-methyl-6-oxo-6,7,8,9-tetrahydro-5H-pyrimido[4,5-b][1,4]diazepin-2-ylamino)-3-methoxy-N-(1-methylazetidin-3-yl)benzamide]",> 10
10,"COc1cc(C(=O)N[C@H]2CCCNC2)ccc1Nc1ncc2c(n1)N(C1CCCC1)CC1(CC1)C(=O)N2C [Compound 166, (S)-4-(9′-cyclopentyl-5′-methyl-6′-oxo-5′,6′,8′,9′-tetrahydrospiro[cyclopropane-1,7′-pyrimido[4,5-b][1,4]diazepine]-2′-ylamino)-3-methoxy-N-(piperidin-3-yl)benzamide]",1 to 2.51
11,"COc1cc(C(=O)NN2CCN(C)CC2)ccc1Nc1ncc2c(n1)N(C1CCCC1)CC1(CC1)C(=O)N2C [Compound 168, 4-(9′-cyclopentyl-5′-methyl-6′-oxo-5′,6′,8′,9′-tetrahydrospiro[cyclopropane-1,7′-pyrimido[4,5-b][1,4]diazepine]-2′-ylamino)-3-methoxy-N-(4-methylpiperazin-1-yl)benzamide]",1 to 2.51
12,"COc1cc(C(=O)NN2CCN(C)CC2)ccc1Nc1ncc2c(n1)N(C1CCCCC1)CC1(CC1)C(=O)N2C [Compound 170, 4-(9′-cyclohexyl-5′-methyl-6′-oxo-5′,6′,8′,9′-tetrahydrospiro[cyclopropane-1,7′-pyrimido[4,5-b][1,4]diazepine]-2′-ylamino)-3-methoxy-N-(4-methylpiperazin-1-yl)benzamide]",< 1
13,"COc1cc(C(=O)N[C@H]2CCCNC2)ccc1Nc1ncc2c(n1)N(C1CCCCC1)CC1(CC1)C(=O)N2C [Compound 174, (S)-4-(9′-cyclohexyl-5′-methyl-6′-oxo-5′,6′,8′,9′-tetrahydrospiro[cyclopropane-1,7′-pyrimido[4,5-b][1,4]diazepine]-2′-ylamino)-3-methoxy-N-(piperidin-3-yl)benzamide]",1 to 2.51
14,"CCN1CCC(NC(=O)c2ccc(Nc3ncc4c(n3)N(C3CCCCC3)CC3(CC3)C(=O)N4C)c(OC)c2)CC1 [Compound 176, 4-(9′-cyclohexyl-5′-methyl-6′-oxo-5′,6′,8′,9′-tetrahydrospiro[cyclopropane-1,7′-pyrimido[4,5-b][1,4]diazepine]-2′-ylamino)-N-(1-ethylpiperidin-4-yl)-3-methoxybenzamide]",> 10
15,"COc1cc(C(=O)NC2CCN(C)CC2)ccc1Nc1ncc2c(n1)N(C1CCCC1C)CC1(CC1)C(=O)N2C (stereo not shown) [Compound 177, 3-methoxy-4-(5′-methyl-9′-(2-methylcyclopentyl)-6′-oxo-5′,6′,8′,9′-tetrahydrospiro[cyclopropane-1,7′-pyrimido[4,5-b][1,4]diazepine]-2′-ylamino)-N-(1-methylpiperidin-4-yl)benzamide]",< 1
